Measured values taken from PubChem BioAssay (NCI).
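The compound was tested at five concentrations on cells cultured in 96-well plates, with a 48-hour exposure period. TGI: total growth inhibition.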

Experiments:
Experiment in all cases: NCI anticancer screen, dose series, 48 h
[1] = test system: HS 578T breast
[2] = test system: RPMI-8226 leukemia
[3] = test system: MALME-3M melanoma
[4] = test system: NCI/ADR-RES ovarian
[5] = test system: SNB-19 CNS
[6] = test system: CCRF-CEM leukemia
[7] = test system: NCI-H23 lung
[8] = test system: SF-539 CNS
[9] = test system: A498 renal
[10] = test system: MDA-N
[11] = test system: IGROV1 ovarian
[12] = test system: UACC-257 melanoma
[13] = test system: ACHN renal
[14] = test system: CAKI-1 renal
[15] = test system: BT-549 breast
[16] = test system: 786-0 renal
[17] = test system: HOP-62 NSCLC
[18] = test system: SK-OV-3 ovarian
[19] = test system: UACC-62 melanoma
[20] = test system: M14 melanoma
[21] = test system: OVCAR-8 ovarian
[22] = test system: OVCAR-5 ovarian
[23] = test system: SF-268 CNS
[24] = test system: K-562 leukemia
[25] = test system: HT29 colon
[26] = test system: MDA-MB-435
[27] = test system: SF-295 CNS
[28] = test system: MOLT-4 leukemia
[29] = test system: HOP-92 NSCLC
[30] = test system: TK-10 renal
[31] = test system: SK-MEL-5 melanoma
[32] = test system: HCT-116 colon
[33] = test system: SN12C renal
[34] = test system: A549 NSCLC
[35] = test system: PC-3 prostate
[36] = test system: COLO 205 colon
[37] = test system: LOX IMVI melanoma
[38] = test system: OVCAR-4 ovarian
[39] = test system: NCI-H460 lung
[40] = test system: HCT-15 colon
[41] = test system: EKVX NSCLC
[42] = test system: HCC-2998 colon
[43] = test system: OVCAR-3 ovarian
[44] = test system: SK-MEL-2 melanoma
[45] = test system: MCF7 breast
[46] = test system: HL-60(TB) leukemia
[47] = test system: SW-620 colon
[48] = test system: UO-31 renal
[49] = test system: NCI-H522 lung
[50] = test system: DU-145 prostate
[51] = test system: SK-MEL-28 melanoma
[52] = test system: MDA-MB-231 breast
[53] = test system: NCI-H226 lung
[54] = test system: U251 CNS
[55] = test system: KM12 colon
[56] = test system: RXF 393 renal
[57] = test system: T-47D breast
[58] = test system: SNB-75 CNS
[59] = test system: SR leukemia

O=C(Cn1c2c(c3ccccc31)CCCC2)N1CCOCC1
TGI [1]: > 100 µM
TGI [2]: > 100 µM
TGI [3]: > 100 µM
TGI [4]: > 100 µM
TGI [5]: > 100 µM
TGI [6]: > 100 µM
TGI [7]: > 100 µM
TGI [8]: > 100 µM
TGI [9]: > 100 µM
TGI [10]: > 100 µM
TGI [11]: > 100 µM
TGI [12]: > 100 µM
TGI [13]: > 100 µM
TGI [14]: > 100 µM
TGI [15]: > 100 µM
TGI [16]: > 100 µM
TGI [17]: > 100 µM
TGI [18]: > 100 µM
TGI [19]: > 100 µM
TGI [20]: > 100 µM
TGI [21]: > 100 µM
TGI [22]: > 100 µM
TGI [23]: > 100 µM
TGI [24]: > 100 µM
TGI [25]: > 100 µM
TGI [26]: > 100 µM
TGI [27]: > 100 µM
TGI [28]: > 100 µM
TGI [29]: > 100 µM
TGI [30]: > 100 µM
TGI [31]: > 100 µM
TGI [32]: > 100 µM
TGI [33]: > 100 µM
TGI [34]: > 100 µM
TGI [35]: > 100 µM
TGI [36]: > 100 µM
TGI [37]: > 100 µM
TGI [38]: > 100 µM
TGI [39]: > 100 µM
TGI [40]: > 100 µM
TGI [41]: > 100 µM
TGI [42]: > 100 µM
TGI [43]: > 100 µM
TGI [44]: > 100 µM
TGI [45]: > 100 µM
TGI [46]: > 100 µM
TGI [47]: > 100 µM
TGI [48]: > 100 µM

CCCCCCCCCc1cc(=O)c2c(O)cc(O)cc2o1
TGI [1]: 40.6 µM
TGI [2]: 22.3 µM
TGI [3]: 32 µM
TGI [4]: 35.7 µM
TGI [5]: 34.7 µM
TGI [6]: 44.7 µM
TGI [7]: 34.2 µM
TGI [49]: 31.5 µM
TGI [8]: 34.4 µM
TGI [9]: 35.2 µM
TGI [50]: 36.7 µM
TGI [51]: 52.2 µM
TGI [10]: > 100 µM
TGI [11]: 32.4 µM
TGI [12]: 35.5 µM
TGI [13]: 34.5 µM
TGI [14]: > 100 µM
TGI [16]: 42.8 µM
TGI [17]: 28.5 µM
TGI [18]: 32.2 µM
TGI [52]: > 100 µM
TGI [20]: 34.9 µM
TGI [21]: 40.2 µM
TGI [22]: 32 µM
TGI [23]: 14.5 µM
TGI [24]: 26 µM
TGI [25]: 34.4 µM
TGI [26]: 41.1 µM
TGI [53]: 36 µM
TGI [27]: 36 µM
TGI [28]: 22.3 µM
TGI [29]: 33.7 µM
TGI [30]: 34.5 µM
TGI [31]: 37.6 µM
TGI [54]: 77.2 µM
TGI [32]: 47.6 µM
TGI [33]: 38.9 µM
TGI [55]: 21.3 µM
TGI [34]: 35.5 µM
TGI [56]: 31.3 µM
TGI [35]: 32.1 µM
TGI [36]: 54.2 µM
TGI [37]: 44.7 µM
TGI [57]: 51.1 µM
TGI [38]: 40.9 µM
TGI [39]: 50.6 µM
TGI [40]: 36 µM
TGI [41]: 37.5 µM
TGI [58]: 33.2 µM
TGI [42]: 35.8 µM
TGI [43]: 30.4 µM
TGI [44]: 34.3 µM
TGI [46]: 32.3 µM
TGI [47]: 78.1 µM
TGI [59]: 32.7 µM
TGI [48]: 32.6 µM

COc1ccc2c3c([nH]c2c1)[C@H](C=C(C)C)N1C(=O)[C@@H]2CCCN2C(=O)[C@@H]1C3
TGI [1]: > 100 µM
TGI [2]: > 100 µM
TGI [3]: > 100 µM
TGI [4]: > 100 µM
TGI [5]: > 100 µM
TGI [6]: > 100 µM
TGI [7]: > 100 µM
TGI [49]: > 100 µM
TGI [8]: 83 µM
TGI [9]: > 100 µM
TGI [50]: > 100 µM
TGI [51]: 55.5 µM
TGI [11]: > 100 µM
TGI [12]: > 100 µM
TGI [13]: > 100 µM
TGI [14]: > 100 µM
TGI [15]: > 100 µM
TGI [16]: > 100 µM
TGI [17]: > 100 µM
TGI [18]: 95.9 µM
TGI [19]: > 100 µM
TGI [52]: > 100 µM
TGI [20]: > 100 µM
TGI [21]: > 100 µM
TGI [22]: > 100 µM
TGI [23]: > 100 µM
TGI [24]: > 100 µM
TGI [25]: > 100 µM
TGI [26]: > 100 µM
TGI [53]: > 100 µM
TGI [27]: > 100 µM
TGI [28]: > 100 µM
TGI [29]: > 100 µM
TGI [30]: > 100 µM
TGI [54]: > 100 µM
TGI [32]: > 100 µM
TGI [33]: > 100 µM
TGI [55]: > 100 µM
TGI [34]: > 100 µM
TGI [56]: > 100 µM
TGI [35]: > 100 µM
TGI [36]: > 100 µM
TGI [37]: > 100 µM
TGI [57]: > 100 µM
TGI [38]: > 100 µM
TGI [39]: > 100 µM
TGI [40]: > 100 µM
TGI [41]: > 100 µM
TGI [58]: 61 µM
TGI [42]: > 100 µM
TGI [43]: > 100 µM
TGI [44]: > 100 µM
TGI [45]: > 100 µM
TGI [46]: > 100 µM
TGI [47]: > 100 µM
TGI [59]: > 100 µM
TGI [48]: > 100 µM

CN1C(CC(O)c2ccccc2)CCCC1CC(O)(c1ccccc1)c1ccccc1 (configuration not stated)
TGI [2]: 41.1 µM
TGI [3]: 33.8 µM
TGI [4]: 33.5 µM
TGI [5]: 36.3 µM
TGI [6]: 58.1 µM
TGI [7]: 35.8 µM
TGI [49]: 42.3 µM
TGI [8]: 27.3 µM
TGI [50]: 45.6 µM
TGI [51]: 30.9 µM
TGI [10]: 33.5 µM
TGI [11]: 33.1 µM
TGI [12]: 33.4 µM
TGI [13]: 52.2 µM
TGI [14]: > 100 µM
TGI [16]: 29.1 µM
TGI [17]: 27.6 µM
TGI [18]: 38.8 µM
TGI [19]: 40.7 µM
TGI [52]: 48.8 µM
TGI [20]: 34.9 µM
TGI [21]: 43 µM
TGI [22]: 32.7 µM
TGI [23]: 43.7 µM
TGI [24]: 94.8 µM
TGI [25]: 31.8 µM
TGI [53]: 38.5 µM
TGI [27]: 30.8 µM
TGI [28]: 54.9 µM
TGI [30]: 38.8 µM
TGI [31]: 31 µM
TGI [54]: 28.4 µM
TGI [32]: 29.1 µM
TGI [33]: 32.3 µM
TGI [55]: 36.6 µM
TGI [34]: 50 µM
TGI [56]: 28.9 µM
TGI [35]: 34.7 µM
TGI [36]: 34.2 µM
TGI [37]: 41.5 µM
TGI [57]: 52.7 µM
TGI [40]: 34.4 µM
TGI [41]: 64.5 µM
TGI [58]: 44.8 µM
TGI [42]: 37.8 µM
TGI [43]: 31.3 µM
TGI [45]: 43.4 µM
TGI [46]: 41.8 µM
TGI [47]: 39 µM
TGI [59]: 56.6 µM
TGI [48]: 20.8 µM
